Measured values: patent US8481541B2, “Pyrrolopyrazine kinase inhibitors” (Hoffmann-La Roche Inc., priority 2010, dated 2013)

How the values were obtained:
[1] = target: T1, h-jak3(810-1124) (JAK3 recombinant human kinase domain) (Homo sapiens, UniProt P52333); assay: Determination of IC50 of Janus Kinase (JAK) inhibition, radioactive end-point 33P-ATP kinase assay, JAK3; type: biochemical; conditions: JAK3 kinase domain (810-1124), sf9; no additive; ATP 1.5 uM, peptide 50 uM, 20 minutes, room temperature; read-out: Ic50 h-jak3(810-1124)-sf9-c: no additive
T1 construct: Ic50 h-jak3(810-1124)-; made in house; host or cells: Sf9 insect cells
T1 sequence (P52333 810-1124): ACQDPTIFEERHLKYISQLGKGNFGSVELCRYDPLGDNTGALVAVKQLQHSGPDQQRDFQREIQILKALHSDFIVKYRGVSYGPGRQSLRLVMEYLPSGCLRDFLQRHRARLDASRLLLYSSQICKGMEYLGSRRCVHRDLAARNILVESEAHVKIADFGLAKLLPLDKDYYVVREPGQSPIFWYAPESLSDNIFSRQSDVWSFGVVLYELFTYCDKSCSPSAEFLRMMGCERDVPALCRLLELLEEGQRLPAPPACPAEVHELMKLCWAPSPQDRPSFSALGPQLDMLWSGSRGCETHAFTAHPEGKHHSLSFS
Excerpt: Determination of IC50 of Janus Kinase (JAK) Inhibition:
Enzymes and peptide substrate used are described below: • JAK1: Recombinant human kinase domain from Invitrogen (Cat # PV4774) • JAK3: Recombinant human kinase domain from Millipore (Cat # 14-629) or prepared. • JAK2: Recombinant human kinase domain from Millipore (Cat # 14-640) Substrate: N-terminally biotinylated 14-mer peptide derived from activation loop of JAK1 with sequence of the peptide substrate: Biotin-[…]
Assay conditions used are described below: • Assay Buffer: JAK Kinase Buffer: 50 mM Hepes [pH 7.2], 10 mM MgCl2, 1 mM DTT, 1 mg/ml BSA. The assay was carried out in this buffer. • Assay Format The kinase activity of all three JAK kinases was measured using a radioactive, end-point assay and with trace amounts of ^33P-ATP. The assays were carried out in 96-well polypropylene plates. Experimental Method:
All concentrations were final in the reaction mixture and all incubations were carried at room temperature. Assay steps are described below: • 1) Compounds were serially diluted in 100% DMSO typically at a 10× starting concentration of 1 mM. Final concentration of DMSO in the reaction was 10%. • 2) Compounds were preincubated with enzyme (0.5 nM JAK3 (commercially available), 0.2 nM JAK3 (prepared), 1 nM JAK2, 5 nM JAK1) for 10 minutes. • 3) Reactions were initiated by the addition of a cocktail of the two substrates (ATP and peptide premixed in the JAK Kinase Buffer). In the JAK2/JAK3 assays, ATP and the peptide were used at concentrations of 1.5 uM and 50 uM, respectively. JAK1 assay was carried out at an ATP concentration of 10 uM and a peptide concentration of 50 uM. • 4) The duration of the assay for JAK2 and JAK3 is 20 minutes. JAK1 assay was carried out for 40 minutes. With all three enzymes, reactions were terminated by the addition of 0.5M EDTA to a final concentration of 100 mM. • 5) 25 ul of terminated reactions were transferred to 150 ul of a 7.5% (v/v) slurry of streptavidin-coated sepharose beads in MgCl2- and CaCl2-free 1× Phosphate Buffered Saline containing 50 mM of EDTA in 96-well, 1.2 um MultiScreen-BV filter plates. • 6) After a 30-minute incubation, the beads were washed under vacuum with the following buffers: • a. 3 to 4 washes with 200 ul of 2M NaCl. • b. 3 to 4 washes with 200 ul of 2M NaCl plus 1% (v/v) phosphoric acid. • c. 1 wash with water. • 7) Washed plates were dried in a 60° C. oven for between 1 to 2 hours. • 8) 70 ul of Microscint 20 scintillation fluid was added to each well of filter plates and after at least 30 minutes of incubation, radioactive counts were measured in a Perkinelmer microplate scintillation counter.

Structure (SMILES)	IC50 [1]	melting point
NC(=O)CNC(=O)c1c[nH]c2ncc(C3CC3)nc12 [Compound I-1, 2-Cyclopropyl-5H-pyrrolo[2,3-b]pyrazine-7-carboxylic acid carbamoylmethyl-amide]	287 nM	215 to 220 °C
CC(CC(=O)NCC(F)(F)F)NC(=O)c1c[nH]c2ncc(C3CC3)nc12 (stereo not shown) [Compound I-2, 2-Cyclopropyl-5H-pyrrolo[2,3-b]pyrazine-7-carboxylic acid [1-methyl-2-(2,2,2-trifluoro-ethylcarbamoyl)-ethyl]-amide]	200 nM	230 to 232 °C
CCNC(=O)CC(C)NC(=O)c1c[nH]c2ncc(C3CC3)nc12 (stereo not shown) [Compound I-3, 2-Cyclopropyl-5H-pyrrolo[2,3-b]pyrazine-7-carboxylic acid (2-ethylcarbamoyl-1-methyl-ethyl)-amide]	909 nM	182 to 184 °C
CCCNC(=O)CC(C)NC(=O)c1c[nH]c2ncc(C3CC3)nc12 (stereo not shown) [Compound I-4, 2-Cyclopropyl-5H-pyrrolo[2,3-b]pyrazine-7-carboxylic acid (1-methyl-2-propylcarbamoyl-ethyl)-amide]	836 nM	198 to 200 °C
CC(CC(=O)NC1CC1)NC(=O)c1c[nH]c2ncc(C3CC3)nc12 (stereo not shown) [Compound I-5, 2-Cyclopropyl-5H-pyrrolo[2,3-b]pyrazine-7-carboxylic acid (2-cyclopropylcarbamoyl-1-methyl-ethyl)-amide]	986 nM	236 to 238 °C
C[C@@H](NC(=O)c1c[nH]c2ncc(C3CC3)nc12)C(=O)N(C)C [Compound I-6, 2-Cyclopropyl-5H-pyrrolo[2,3-b]pyrazine-7-carboxylic acid ((R)-1-dimethylcarbamoyl-ethyl)-amide]	112 nM	
CC(C)(C(N)=O)C(NC(=O)c1c[nH]c2ncc(C3CC3)nc12)C1CC1 (stereo not shown) [Compound I-7, 2-Cyclopropyl-5H-pyrrolo[2,3-b]pyrazine-7-carboxylic acid (2-carbamoyl-1-cyclopropyl-2-methyl-propyl)-amide]	68 nM	222 to 224 °C
C[C@@H](NC(=O)c1c[nH]c2ncc(C3CC3)nc12)C(=O)N(C)CC#N [Compound I-8, 2-Cyclopropyl-5H-pyrrolo[2,3-b]pyrazine-7-carboxylic acid [(R)-1-(cyanomethyl-methyl-carbamoyl)-ethyl]-amide]	39.7 nM	
C[C@H](NC(=O)c1c[nH]c2ncc(C3CC3)nc12)C(=O)N(C)C [Compound I-9, 2-Cyclopropyl-5H-pyrrolo[2,3-b]pyrazine-7-carboxylic acid ((S)-1-dimethylcarbamoyl-ethyl)-amide]	1240 nM	
CC(C)C[C@@H](NC(=O)c1c[nH]c2ncc(C3CC3)nc12)C(=O)N(C)C [Compound I-10, 2-Cyclopropyl-5H-pyrrolo[2,3-b]pyrazine-7-carboxylic acid ((R)-1-dimethylcarbamoyl-3-methyl-butyl)-amide]	95 nM	
O=C(N[C@@H]1CCCNC1=O)c1c[nH]c2ncc(C3CC3)nc12 [Compound I-11, 2-Cyclopropyl-5H-pyrrolo[2,3-b]pyrazine-7-carboxylic acid ((R)-2-oxo-piperidin-3-yl)-amide]	315 nM	
CN1CCC[C@@H](NC(=O)c2c[nH]c3ncc(C4CC4)nc23)C1=O [Compound I-12, 2-Cyclopropyl-5H-pyrrolo[2,3-b]pyrazine-7-carboxylic acid ((R)-1-methyl-2-oxo-piperidin-3-yl)-amide]	178 nM	
N#CCCN1CCC[C@@H](NC(=O)c2c[nH]c3ncc(C4CC4)nc23)C1=O [Compound I-13, 2-Cyclopropyl-5H-pyrrolo[2,3-b]pyrazine-7-carboxylic acid [(R)-1-(2-cyano-ethyl)-2-oxo-piperidin-3-yl]-amide]	138 nM	
